Reference: patent US20060093562A1 (priority 2004, published 2006)
Like-named read-outs stand apart in the source and are kept apart here.

Legend:
[1] = Foam height test (vortexed paste/gel/water mixture with surfactant); format: physicochemical; details: 1% total surfactant (actives); for Total Height: 1 g surfactant-free paste of Table 1, 1 g surfactant-free gel of Table 2, 6 g water, vortex 1 minute, foam plus liquid underneath; for Liquid Height: volume of liquid underneath the foam, less than 5 mL not quantifiable
Procedure: The test used 1% total surfactant (actives). The surfactant was added to an aqueous mixture containing 1 g of surfactant-free paste of Table 1, 1 g of the surfactant-free version of the gel of Table 2, and 6 g of water. The mixture, prepared in a centrifuge tube, is placed on a Vortex-Genie 2 (Scientific Industries) on setting 5, and allowed to vortex for 1 minute. The total height measured was the total volume of the foam plus any liquid underneath. The liquid height was the volume of liquid underneath the foam. Liquid volumes of less than 5 mL could not be quantified since the lowest level on the centrifuge tube used to conduct the foam test was 5 mL.

[2] = format: physicochemical; details: paste of Table 1 with surfactant

Row | Molecule | Total Height [1] | Liquid Height [1] | Phase Behavior ([2]; stored at 100° F.) | Phase Behavior ([2]; stored at RT) | Saturated solution concentration
1 | CCCCCCCCCCOS(=O)(=O)[O-].[Na+] [SDS, Sodium Decyl Sulfate] | 19 mL | <5 mL |  |  | 
2 | CCCCCCCCCCCCOS(=O)(=O)[O-].[Na+] [SLS, Sodium Lauryl Sulfate] | 9 mL | 7 mL | Single Phase | Single Phase | 
3 | O=C([O-])O.[Na+] [sodium bicarbonate] |  |  |  |  | about 3.8%
4 | Cocamidopropyl Betaine [CBT] | 10 mL | 7 mL |  |  | 

The remaining lines, values ahead:

Row | Total Height [1] | Liquid Height [1] | Phase Behavior ([2]; stored at 100° F.) | Phase Behavior ([2]; stored at RT) | Saturated solution concentration | Molecule
5 | 9 mL | 7 mL |  |  |  | Sodium Laureth Sulfate, 1 Ether Group [SLES-1]
6 | 9 mL | 7 mL |  |  |  | Sodium Laureth Sulfate, 2 Ether Groups [SLES-2]
7 | 10 mL | 7 mL |  |  |  | Sodium Laureth Sulfate, 3 Ether Groups [SLES-3]
